Measurements: PubChem BioAssay AID1117285 (Broad Institute, 2014)
Results filed as inconclusive are left out. Activity calls are given as the source filed them.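 The calls were made as follows: active = called active in every replicate test, with a falling signal and AC50 within twice the top valid dose; inconclusive = replicate tests disagree in their calls; inactive = inactive in every replicate test, including a rising signal.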

biological target: Leucyl-cystinyl aminopeptidase (Mus musculus) (UniProt Q8C129); experiment: IRAP inhibitors, dose response, selectivity assay for ERAP1 modulator project, biochemical, dry powder samples, set 2 (AID 1117285); settings: purified IRAP, Leu-AMC hydrolysis fluorescence, 1 h
Sequence (Q8C129 whole entry, looked up): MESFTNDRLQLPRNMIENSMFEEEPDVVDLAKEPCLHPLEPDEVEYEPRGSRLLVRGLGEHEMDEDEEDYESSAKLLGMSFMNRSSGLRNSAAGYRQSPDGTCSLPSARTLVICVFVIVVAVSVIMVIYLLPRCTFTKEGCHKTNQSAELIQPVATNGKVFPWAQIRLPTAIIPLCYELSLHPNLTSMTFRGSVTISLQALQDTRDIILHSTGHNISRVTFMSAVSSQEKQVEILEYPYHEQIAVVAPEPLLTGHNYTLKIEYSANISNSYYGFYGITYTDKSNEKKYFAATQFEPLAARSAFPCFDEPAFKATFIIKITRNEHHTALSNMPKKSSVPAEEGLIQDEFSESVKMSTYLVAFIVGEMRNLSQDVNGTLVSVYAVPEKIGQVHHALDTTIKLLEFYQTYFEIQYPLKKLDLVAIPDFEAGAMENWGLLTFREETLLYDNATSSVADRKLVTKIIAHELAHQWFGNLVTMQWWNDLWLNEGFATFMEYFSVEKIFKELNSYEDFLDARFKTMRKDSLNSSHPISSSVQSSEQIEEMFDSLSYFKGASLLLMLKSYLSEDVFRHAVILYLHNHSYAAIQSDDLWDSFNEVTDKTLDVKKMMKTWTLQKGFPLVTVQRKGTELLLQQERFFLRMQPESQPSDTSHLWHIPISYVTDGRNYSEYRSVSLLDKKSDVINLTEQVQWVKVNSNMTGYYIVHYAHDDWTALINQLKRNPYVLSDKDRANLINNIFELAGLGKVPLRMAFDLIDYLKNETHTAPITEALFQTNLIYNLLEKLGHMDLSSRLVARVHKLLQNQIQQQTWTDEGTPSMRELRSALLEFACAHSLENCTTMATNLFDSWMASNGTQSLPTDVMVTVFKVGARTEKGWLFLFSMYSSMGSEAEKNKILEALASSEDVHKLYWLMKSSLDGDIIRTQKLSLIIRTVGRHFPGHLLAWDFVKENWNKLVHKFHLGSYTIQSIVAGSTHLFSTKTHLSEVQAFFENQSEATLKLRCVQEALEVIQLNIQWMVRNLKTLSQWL

| AC50 | Structure (SMILES) |
| --- | --- |
| > 100 µM (inactive) | CC(=O)N1CCN(C(=O)[C@@H]2CCN2C(=O)Nc2ccc(C)cc2)CC1 |
| > 100 µM (inactive) | COC(=O)[C@H](CCCCN)NC(=O)c1ccc(N)c(NC(=O)[C@@H](N)CCc2ccccc2)c1 |

same assay, conditions: purified IRAP, Leu-AMC hydrolysis fluorescence, 1 h; at 0.1 µM; lower = more inhibition

| max activity % (lower = more inhibition) | Structure (SMILES) |
| --- | --- |
| inactive | CC(=O)N1CCN(C(=O)C2(NC(=O)Nc3ccc(C(F)(F)F)cc3)CCCC2)CC1 |
| inactive | COc1ccc(C(=O)Nc2cc(C(F)(F)F)ccc2N2CCOCC2)cc1S(=O)(=O)O |
| inactive | CC(=O)N1CCN(C(=O)C2(NC(=O)Nc3ccc(Cl)cc3)CCCCC2)CC1 |
| inactive | CC(=O)N1CCN(C(=O)C2(NC(=O)NC(C)(C)C)CCCCC2)CC1 |
| inactive | CC(=O)N1CCN(C(=O)C2(NC(=O)Nc3ccc(C)cc3)CCCCC2)CC1 |
| inactive | CC(=O)N1CCN(C(=O)CNC(=O)Nc2ccc(C)cc2)CC1 |
| inactive | Cc1ccc(NC(=O)NC2(C(=O)N3CCOCC3)CCCCC2)cc1 |

same assay, conditions: purified IRAP, Leu-AMC hydrolysis fluorescence, 1 h; at 0.195 µM; lower = more inhibition

| max activity % (lower = more inhibition) | Structure (SMILES) |
| --- | --- |
| inactive | CC(=O)N1CCN(C(=O)C2(NC(=O)Nc3cccc(F)c3)CCCCC2)CC1 |
| inactive | O=S(=O)(Nc1cc(C(F)(F)F)ccc1N1CCCCC1)c1ccc(F)cc1 |
| inactive | Cc1ccccc1S(=O)(=O)Nc1cc(C(F)(F)F)ccc1N1CCCCC1 |
| inactive | CC(=O)N1CCN(C(=O)C2(NC(=O)Nc3ccc(C(C)C)cc3)CCCC2)CC1 |
| inactive | COc1ccc(S(=O)(=O)Nc2cc(C(F)(F)F)ccc2N2CCCCC2)cc1 |
| inactive | O=S(=O)(Nc1cc(C(F)(F)F)ccc1N1CCCCC1)c1ccccc1 |
| inactive | O=[N+]([O-])c1cccc(S(=O)(=O)Nc2cc(C(F)(F)F)ccc2N2CCCCC2)c1 |
| inactive | COc1ccc(C(=O)Nc2cc(C(F)(F)F)ccc2N2CCCC2)cc1S(=O)(=O)O |
| inactive | CC(=O)N1CCN(C(=O)C2(NC(=O)Nc3ccccc3C(F)(F)F)CCCCC2)CC1 |
| inactive | CC(=O)N1CCN(C(=O)C2(NC(=O)Nc3ccccc3)CCCC2)CC1 |
| inactive | CC(=O)N1CCN(C(=O)C2(NC(=O)Nc3ccc(C(F)(F)F)cc3)CCCCC2)CC1 |
| inactive | NC(=NCCc1c[nH]c2ccccc12)NS(=O)(=O)c1cc(F)ccc1F |
| inactive | CC(=O)N1CCN(C(=O)C2CCCN2C(=O)Nc2ccc(C)cc2)CC1 (stereo not given) |

same assay, conditions: purified IRAP, Leu-AMC hydrolysis fluorescence, 1 h; at 0.38 µM; lower = more inhibition

| max activity % (lower = more inhibition) | Structure (SMILES) |
| --- | --- |
| inactive | Cc1ccc(NC(=O)NC2(C(=O)N3CCN(c4ccccc4)CC3)CCCCC2)cc1 |
| inactive | O=S(=O)(Nc1cc(C(F)(F)F)ccc1N1CCCCC1)c1cc(Cl)cc(Cl)c1 |
| inactive | CC(=O)N1CCN(C(=O)C2(NC(=O)Nc3cccc(C(F)(F)F)c3)CCCCC2)CC1 |
| inactive | CC(=O)N1CCN(C(=O)C2(NC(=O)Nc3ccc(C(C)C)cc3)CCCCC2)CC1 |

same assay, conditions: purified IRAP, Leu-AMC hydrolysis fluorescence, 1 h; at 0.8 µM; lower = more inhibition

| max activity % (lower = more inhibition) | Structure (SMILES) |
| --- | --- |
| inactive | N#Cc1ccc(S(=O)(=O)Nc2cc(C(F)(F)F)ccc2N2CCCCC2)cc1 |
| inactive | CC(=O)N1CCN(C(=O)C2(NC(=O)Nc3ccccc3F)CCCCC2)CC1 |
| inactive | Cn1cnc(S(=O)(=O)Nc2cc(C(F)(F)F)ccc2N2CCCCC2)c1 |
| inactive | O=[N+]([O-])c1ccc(S(=O)(=O)Nc2cc(C(F)(F)F)ccc2N2CCCCC2)c([N+](=O)[O-])c1 |
| inactive | O=S(=O)(Nc1cc(C(F)(F)F)ccc1N1CCCCC1)c1ccc(Cl)cc1 |

same assay, conditions: purified IRAP, Leu-AMC hydrolysis fluorescence, 1 h; at 3 µM; lower = more inhibition

| max activity % (lower = more inhibition) | Structure (SMILES) |
| --- | --- |
| inactive | O=S(=O)(Nc1cc(C(F)(F)F)ccc1N1CCCCC1)c1ccc(C(F)(F)F)cc1 |
| inactive | CC(=O)N1CCN(C(=O)C2(NC(=O)Nc3ccc(F)cc3)CCCC2)CC1 |
| inactive | O=S(=O)(Nc1cc(C(F)(F)F)ccc1N1CCCCC1)c1ccc(Br)cc1 |
| inactive | O=S(=O)(Nc1cc(C(F)(F)F)ccc1N1CCCCC1)c1ccc(-c2ccccc2)cc1 |

same assay, conditions: purified IRAP, Leu-AMC hydrolysis fluorescence, 1 h; at 12 µM; lower = more inhibition

| max activity % (lower = more inhibition) | Structure (SMILES) |
| --- | --- |
| inactive | COc1cccc(NC(=O)NC2(C(=O)N3CCN(C(C)=O)CC3)CCCCC2)c1 |
| inactive | COc1ccc(NC(=O)NC2(C(=O)N3CCN(C(C)=O)CC3)CCCCC2)cc1 |

same assay, conditions: purified IRAP, Leu-AMC hydrolysis fluorescence, 1 h; at 50 µM; lower = more inhibition

| max activity % (lower = more inhibition) | Structure (SMILES) |
| --- | --- |
| inactive | COc1ccc(C(=O)Nc2cccc(C(F)(F)F)c2)cc1S(=O)(=O)O |
| inactive | CC(=O)N1CCN(C(=O)C2(NC(=O)Nc3ccc(F)cc3)CCCCC2)CC1 |
| inactive | O=C(Nc1cc(C(F)(F)F)ccc1N1CCCCC1)c1ccc(S(=O)(=O)O)cc1 |
| inactive | COc1ccc(C(=O)Nc2cc(F)ccc2N2CCCCC2)cc1S(=O)(=O)O |
| inactive | COc1ccc(C(=O)Nc2cc(C(F)(F)F)ccc2N2CCCCC2)cc1S(=O)(=O)O |
| inactive | CC(=O)N1CCN(C(=O)C(C)(C)NC(=O)Nc2ccc(C)cc2)CC1 |
| inactive | CC(=O)N1CCN(C(=O)C2(NC(=O)NCCc3ccccc3)CCCCC2)CC1 |
| inactive | CC(=O)N1CCN(C(=O)C2(NC(=O)Nc3ccccc3F)CCCCC2)CC1 |
| inactive | COc1ccc(C(=O)Nc2cc(C)ccc2N2CCCCC2)cc1S(=O)(=O)O |
| inactive | CC(=O)N1CCN(C(=O)C2(NC(=O)Nc3ccccc3)CCCCC2)CC1 |
| inactive | COc1ccc(C(=O)Nc2ccccc2N2CCCCC2)cc1S(=O)(=O)O |

same assay, conditions: purified IRAP, Leu-AMC hydrolysis fluorescence, 1 h; lower = more inhibition

| max activity % (lower = more inhibition) | Structure (SMILES) |
| --- | --- |
| inactive | COC(=O)c1ccc(OC)c(S(=O)(=O)Nc2cc(C(F)(F)F)ccc2N2CCCCC2)c1 |
| inactive | COc1ccc(C(=O)O)cc1S(=O)(=O)Nc1cc(C(F)(F)F)ccc1N1CCCCC1 |
| inactive | COc1ccc(C(=O)O)cc1S(=O)(=O)Nc1ccccc1N1CCCCC1 |
| inactive | COc1ccc(C(=O)O)cc1S(=O)(=O)Nc1cc(C)ccc1N1CCCCC1 |
| inactive | COc1ccc(C(=O)O)cc1S(=O)(=O)Nc1cc(C(F)(F)F)ccc1N1CCOCC1 |
| inactive | COc1ccc(C(=O)O)cc1S(=O)(=O)Nc1cc(F)ccc1N1CCCCC1 |
| inactive | COc1ccc(C(=O)O)cc1S(=O)(=O)Nc1cc(C(F)(F)F)ccc1N(C)C |
